Measurements published in patent US9833497B2, “Human originated EGF domain proteins and use of the same” (CHENGDU SOURCEBIO LIMITED-LIABILITY COMPANY, priority 2013, dated 2017).

Legend:
Type in all cases: cell-based
Enterobacter cloacae = assay: MIC against Gram-negative bacteria: Enterobacter cloacae
How it was run: (§1)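 LB broth cultures at McFarland 0.5, spun down, resuspended, diluted to 5×10^5 CFU/mL final. Two-fold serial dilutions of purified human EGF domain proteins, triplicate. 37° C, 175 rpm shaking. Endpoint: no visible growth.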

E. coli DH5α = assay: Antibacterial activity: MIC and growth curve against E. coli DH5α in 96-well plate; conditions: minimal inhibitory concentration against E. coli DH5α; 96-well plate, 5×10^5 CFU/mL, 37° C., judged after 8 h
How it was run: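 Log-phase DH5α (OD600 about 0.5, 37° C, 185 rpm in LB) was pelleted, resuspended in fresh LB and seeded at 5×10^5 CFU/mL with recombinant protein at 50, 25 and 12.5 μg/mL (two-fold series), in triplicate. Plates were shaken at 175 rpm, 37° C, and OD600 was read every 30 min. MIC was the lowest concentration with no growth.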

Citrobacter diversus = assay: MIC against Gram-negative bacteria: Citrobacter diversus
How it was run: as §1

Serratia marcescens = assay: MIC against Gram-negative bacteria: Serratia marcescens
How it was run: as §1

Moraxella catarrhalis = assay: MIC against Gram-negative bacteria: Moraxella catarrhalis
How it was run: as §1

Pseudomonas aeruginosa = assay: MIC against Gram-negative bacteria: Pseudomonas aeruginosa
How it was run: as §1

E. coli BL21 = assay: MIC against Gram-negative bacteria: E. coli BL21
How it was run: as §1

Proteus mirabilis = assay: MIC against Gram-negative bacteria: Proteus mirabilis
How it was run: as §1

Proteus vulgaris = assay: MIC against Gram-negative bacteria: Proteus vulgaris
How it was run: as §1

Klebsiella pneumonia = assay: MIC against Gram-negative bacteria: Klebsiella pneumonia
How it was run: as §1

Aeromonas hydrophila = assay: MIC against Gram-negative bacteria: Aeromonas hydrophila
How it was run: as §1

[1] = 96-well plate, 5×10^5 CFU/mL, 37° C., 10 h
[2] = 10 h cultivation at 37° C., 5×10^5 CFU/mL, two-fold serial dilution

## PRT711 (GDNMCRVNNGGCSTLCLAIPGGRVCACADNQLLDENGTTCT; listed as Homo sapiens)
Enterobacter cloacae; [1]
  MIC E. cloacae: 25 µg/mL
E. coli DH5α
  MIC: 25 µg/mL
Citrobacter diversus; [1]
  MIC C. diversus: 12.5 µg/mL
Serratia marcescens; [1]
  MIC S. marcescens: 50 µg/mL
Moraxella catarrhalis; [1]
  MIC M. catarrhalis: 50 µg/mL
Pseudomonas aeruginosa; [1]
  MIC P. aeruginosa: 50 µg/mL
E. coli BL21; [1]
  MIC E. coli BL21: 12.5 µg/mL
Proteus mirabilis; [1]
  MIC P. mirabilis: 12.5 µg/mL
Proteus vulgaris; [1]
  MIC P. vulgaris: 25 µg/mL
Klebsiella pneumonia; [1]
  MIC K. pneumonia: 12.5 µg/mL
Aeromonas hydrophila; [1]
  MIC A. hydrophila: 50 µg/mL

## PRT133 (CRGHCSSYGKLCRNGGKCRERPIGFFCDCTFSAYTGPFCS; listed as Homo sapiens)
Enterobacter cloacae; Enterobacter cloacae, 96-well plate, 5×10^5 CFU/mL, 37° C., 10 h
  MIC (μg/mL) E. cloacae: 12.5 µg/mL
E. coli DH5α
  MIC: 50 µg/mL
Citrobacter diversus; Citrobacter diversus, 96-well plate, 5×10^5 CFU/mL, 37° C., 10 h
  MIC (μg/mL) C. diversus: 50 µg/mL
Serratia marcescens; Serratia marcescens, 96-well plate, 5×10^5 CFU/mL, 37° C., 10 h
  MIC (μg/mL) S. marcescens: 12.5 µg/mL
Moraxella catarrhalis; Moraxella catarrhalis, 96-well plate, 5×10^5 CFU/mL, 37° C., 10 h
  MIC (μg/mL) M. catarrhalis: 25 µg/mL
Pseudomonas aeruginosa; Pseudomonas aeruginosa, 96-well plate, 5×10^5 CFU/mL, 37° C., 10 h
  MIC (μg/mL) P. aeruginosa: 50 µg/mL
E. coli BL21; E. coli BL21, 96-well plate, 5×10^5 CFU/mL, 37° C., 10 h
  MIC (μg/mL) E. coli BL21: 12.5 µg/mL
Proteus mirabilis; Proteus mirabilis, 96-well plate, 5×10^5 CFU/mL, 37° C., 10 h
  MIC (μg/mL) P. mirabilis: 12.5 µg/mL
Proteus vulgaris; Proteus vulgaris, 96-well plate, 5×10^5 CFU/mL, 37° C., 10 h
  MIC (μg/mL) P. vulgaris: 50 µg/mL
Klebsiella pneumonia; Klebsiella pneumonia, 96-well plate, 5×10^5 CFU/mL, 37° C., 10 h
  MIC (μg/mL) K. pneumonia: 25 µg/mL
Aeromonas hydrophila; Aeromonas hydrophila, 96-well plate, 5×10^5 CFU/mL, 37° C., 10 h
  MIC (μg/mL) A. hydrophila: 25 µg/mL

## PRT1398 (EVDCLDPTCSSHGVCVNGECLCSPGWGGLNCEL; listed as Homo sapiens)
Enterobacter cloacae; Enterobacter cloacae, 5×10^5 CFU/mL, 10 h cultivation at 37° C.
  MIC against E. cloacae: 50 µg/mL
E. coli DH5α
  MIC: 25 µg/mL
Citrobacter diversus; Citrobacter diversus, 5×10^5 CFU/mL, 10 h cultivation at 37° C.
  MIC against C. diversus: 12.5 µg/mL
Serratia marcescens; Serratia marcescens, 5×10^5 CFU/mL, 10 h cultivation at 37° C.
  MIC against S. marcescens: 12.5 µg/mL
Moraxella catarrhalis; Moraxella catarrhalis, 5×10^5 CFU/mL, 10 h cultivation at 37° C.
  MIC against M. catarrhalis: 25 µg/mL
Pseudomonas aeruginosa; Pseudomonas aeruginosa, 5×10^5 CFU/mL, 10 h cultivation at 37° C.
  MIC against P. aeruginosa: 12.5 µg/mL
E. coli BL21; E. coli BL21, 5×10^5 CFU/mL, 10 h cultivation at 37° C.
  MIC against E. coli BL21: 25 µg/mL
Proteus mirabilis; Proteus mirabilis, 5×10^5 CFU/mL, 10 h cultivation at 37° C.
  MIC against P. mirabilis: 12.5 µg/mL
Proteus vulgaris; Proteus vulgaris, 5×10^5 CFU/mL, 10 h cultivation at 37° C.
  MIC against P. vulgaris: 25 µg/mL
Klebsiella pneumonia; Klebsiella pneumonia, 5×10^5 CFU/mL, 10 h cultivation at 37° C.
  MIC against K. pneumonia: 25 µg/mL
Aeromonas hydrophila; Aeromonas hydrophila, 5×10^5 CFU/mL, 10 h cultivation at 37° C.
  MIC against A. hydrophila: 25 µg/mL

## PRT661 (QAEECGILNGCENGRCVRVREGYTCDCFEGFQLDAAHMACV; listed as Homo sapiens)
Enterobacter cloacae; [1]
  MIC E. cloacae: 50 µg/mL
E. coli DH5α
  MIC: 50 µg/mL
Citrobacter diversus; [1]
  MIC C. diversus: 12.5 µg/mL
Serratia marcescens; [1]
  MIC S. marcescens: 25 µg/mL
Moraxella catarrhalis; [1]
  MIC M. catarrhalis: 25 µg/mL
Pseudomonas aeruginosa; [1]
  MIC P. aeruginosa: 12.5 µg/mL
E. coli BL21; [1]
  MIC E. coli BL21: 25 µg/mL
Proteus mirabilis; [1]
  MIC P. mirabilis: 50 µg/mL
Proteus vulgaris; [1]
  MIC P. vulgaris: 25 µg/mL
Klebsiella pneumonia; [1]
  MIC K. pneumonia: 25 µg/mL
Aeromonas hydrophila; [1]
  MIC A. hydrophila: 25 µg/mL

## PRT633 (TKPSCVPPCQNGGMCLRPQLCVCKPGTKGKACE; listed as Homo sapiens)
Enterobacter cloacae; [1]
  MIC E. cloacae: 12.5 µg/mL
E. coli DH5α
  MIC: 12.5 µg/mL
Citrobacter diversus; [1]
  MIC C. diversus: 12.5 µg/mL
Serratia marcescens; [1]
  MIC S. marcescens: 25 µg/mL
Moraxella catarrhalis; [1]
  MIC M. catarrhalis: 50 µg/mL
Pseudomonas aeruginosa; [1]
  MIC P. aeruginosa: 12.5 µg/mL
E. coli BL21; [1]
  MIC E. coli BL21: 50 µg/mL
Proteus mirabilis; [1]
  MIC P. mirabilis: 12.5 µg/mL
Proteus vulgaris; [1]
  MIC P. vulgaris: 50 µg/mL
Klebsiella pneumonia; [1]
  MIC K. pneumonia: 50 µg/mL
Aeromonas hydrophila; [1]
  MIC A. hydrophila: 50 µg/mL

## PRT1067 (KLTSCATNASICGDEARCVRTEKAAYCACRSGFHTVPGQPGCQ; listed as Homo sapiens)
Enterobacter cloacae; [2]
  MIC E. cloacae: 25 µg/mL
E. coli DH5α
  MIC: 25 µg/mL
Citrobacter diversus; [2]
  MIC C. diversus: 25 µg/mL
Serratia marcescens; [2]
  MIC S. marcescens: 25 µg/mL
Moraxella catarrhalis; [2]
  MIC M. catarrhalis: 12.5 µg/mL
Pseudomonas aeruginosa; [2]
  MIC P. aeruginosa: 25 µg/mL
E. coli BL21; [2]
  MIC E. coli BL21: 50 µg/mL
Proteus mirabilis; [2]
  MIC P. mirabilis: 25 µg/mL
Proteus vulgaris; [2]
  MIC P. vulgaris: 50 µg/mL
Klebsiella pneumonia; [2]
  MIC K. pneumonia: 12.5 µg/mL
Aeromonas hydrophila; [2]
  MIC A. hydrophila: 25 µg/mL

## PRT922 (LQCRDGYEPCVNEGMCVTYHNGTGYCKCPEGFLGEYCQ; listed as Homo sapiens)
Enterobacter cloacae; E. cloacae, 10 h cultivation at 37° C.
  MIC: 25 µg/mL
E. coli DH5α
  MIC: 12.5 µg/mL
Citrobacter diversus; C. diversus, 10 h cultivation at 37° C.
  MIC: 25 µg/mL
Serratia marcescens; S. marcescens, 10 h cultivation at 37° C.
  MIC: 12.5 µg/mL
Moraxella catarrhalis; M. catarrhalis, 10 h cultivation at 37° C.
  MIC: 25 µg/mL
Pseudomonas aeruginosa; P. aeruginosa, 10 h cultivation at 37° C.
  MIC: 12.5 µg/mL
E. coli BL21; E. coli BL21, 10 h cultivation at 37° C.
  MIC: 25 µg/mL
Proteus mirabilis; P. mirabilis, 10 h cultivation at 37° C.
  MIC: 50 µg/mL
Proteus vulgaris; P. vulgaris, 10 h cultivation at 37° C.
  MIC: 25 µg/mL
Klebsiella pneumonia; K. pneumonia, 10 h cultivation at 37° C.
  MIC: 12.5 µg/mL
Aeromonas hydrophila; A. hydrophila, 10 h cultivation at 37° C.
  MIC: 25 µg/mL
